Patent US9428492B2, “Secondary alcohol substituted triazoles as PDE10 inhibitors” (Merck Sharp & Dohme Corp., priority 2012, dated 2016)
Read-outs that look alike come from different tables or passages of the source.

Key:
human PDE10A2 = human PDE10A2 (Homo sapiens (Human), UniProt Q9Y233); test: PDE10 fluorescence polarization (IMAP FP) inhibition assay; type: biochemical
Description: The activity of the compounds in accordance with the present invention as PDE10 inhibitors may be readily determined without undue experimentation using a fluorescence polarization (FP) methodology that is well known in the art (Huang, W., et al., J. Biomol Screen, 2002, 7: 215).
In a typical experiment the PDE10 inhibitory activity of the compounds of the present invention was determined in accordance with the following experimental method. PDE10A2 was amplified from human fetal brain cDNA (Clontech, Mountain View, Calif.) using a forward primer corresponding to nucleotides 56-77 of human PDE10A2 (Accession No. AF127480, Genbank Identifier 4894716), containing a Kozak consensus sequence, and a reverse primer corresponding to nucleotides 2406-2413 of human PDE10A2 (Accession No. AF127480, Genbank Identifier 4894716). Amplification with Easy-A polymerase (Stratagene, La Jolla, Calif.) was 95° C. for 2 minutes followed by thirty three cycles of 95° C. for 40 seconds, 55° C. for 30 seconds, and 72° C. for 2 minutes 48 seconds. Final extension was 72° C. for 7 minutes. The PCR product was TA cloned into pcDNA3.2-TOPO (Invitrogen, Carlsbad, Calif.) according to standard protocol. AD293 cells with 70-80% confluency were transiently transfected with human PDE10A2/pcDNA3.2-TOPO using Lipofectamine 2000 according to manufacturer specifications (Invitrogen, Carlsbad, Calif.). Cells were harvested 48 hours post-transfection and lysed by sonication (setting 3, 10×5 sec pulses) in a buffer containing 20 mM HEPES, 1 mM EDTA and protease inhibitor cocktail (Roche). Lysate was collected by centrifugation at 75,000×g for 20 minutes. Supernatant containing the cytoplasmic fraction was used for evaluation of PDE10A2 activity. The fluorescence polarization assay for cyclic nucleotide phosphodiesterases was performed using an IMAP® FP kit supplied by Molecular Devices, Sunnyvale, Calif. (product # R8139). IMAP® technology has been applied previously to phosphodiesterase assays (Huang, W., et al., J. Biomol Screen, 2002, 7: 215). Assays were performed at room temperature in 384-well microtiter plates with an incubation volume of 20.2 μL. Solutions of test compounds were prepared in DMSO and serially diluted with DMSO to yield 8 μL of each of 10 solutions differing by 3-fold in concentration, at 32 serial dilutions per plate. […] 0% of inhibition is determined by using DMSO (1% final concentrations).
A Labcyte Echo 555 (Labcyte, Sunnyvale, Calif.) is used to dispense 200 nL from each well of the titration plate to the 384 well assay plate. A solution of enzyme (1/1600 dilution from aliquots; sufficient to produce 20% substrate conversion) and a separate solution of FAM-labeled cAMP PDE from Molecular Devices (product # R7506), at a final concentration of 50 nM are made in the assay buffer (10 mM Tris HCl, pH 7.2, 10 mM MgCl2, 0.05% NaN3 0.01% Tween-20, and 1 mM DTT). The enzyme and the substrate are then added to the assay plates in two consecutive additions of 10 μL, and then shaken to mix. The reaction is allowed to proceed at room temperature for 30 minutes. […] The enzymatic reaction is stopped by addition of 60 μL of the binding solution to each well of the assay plates and the plates are sealed and shaken for 10 seconds. The plate was incubated at room temperature for at least one hour prior to determining the fluorescence polarization (FP). The parallel and perpendicular fluorescence of each well of the plate was measured using a Perkin Elmer EnVision™ plate reader (Waltham, Mass.).
Fluorescence polarization (mP) was calculated from the parallel (S) and perpendicular (P) fluorescence of each sample well and the analogous values for the median control well, containing only substrate (So and Po), using the following equation: Polarization (mP)=1000*(S/So−P/Po)/(S/So+P/Po).
Dose-inhibition profiles for each compound were characterized by fitting the mP data to a four-parameter equation given below.

CYP3A4 = CYP3A4 (Homo sapiens (Human), UniProt P08684); test: time-dependent inhibition (TDI) of CYP3A4; type: in vitro ADME; settings: for time-dependent inhibition (TDI) of the CYP3A4 enzyme: result in words
CYP2C9 = CYP2C9 (Homo sapiens (Human), UniProt P11712); test: reversible inhibition of CYP2C9; type: in vitro ADME
[1] = comparison table with Compounds A, B, C, read-out: PDE10 Ki

Sequence of CYP3A4 (P08684 whole entry): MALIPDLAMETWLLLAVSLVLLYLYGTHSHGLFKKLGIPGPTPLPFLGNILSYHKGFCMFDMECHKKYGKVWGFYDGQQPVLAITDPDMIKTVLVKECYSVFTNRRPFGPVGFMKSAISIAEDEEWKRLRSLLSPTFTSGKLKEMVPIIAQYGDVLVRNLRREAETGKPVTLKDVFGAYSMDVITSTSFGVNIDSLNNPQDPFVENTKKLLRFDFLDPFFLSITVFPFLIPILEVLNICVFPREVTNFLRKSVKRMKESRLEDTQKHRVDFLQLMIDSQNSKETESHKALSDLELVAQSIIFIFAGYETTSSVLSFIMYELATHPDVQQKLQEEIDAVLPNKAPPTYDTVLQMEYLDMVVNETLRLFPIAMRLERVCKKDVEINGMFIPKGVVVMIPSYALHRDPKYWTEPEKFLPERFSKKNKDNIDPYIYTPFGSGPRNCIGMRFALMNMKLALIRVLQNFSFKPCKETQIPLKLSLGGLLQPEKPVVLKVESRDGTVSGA
Sequence of human PDE10A2 (Q9Y233 267-1055): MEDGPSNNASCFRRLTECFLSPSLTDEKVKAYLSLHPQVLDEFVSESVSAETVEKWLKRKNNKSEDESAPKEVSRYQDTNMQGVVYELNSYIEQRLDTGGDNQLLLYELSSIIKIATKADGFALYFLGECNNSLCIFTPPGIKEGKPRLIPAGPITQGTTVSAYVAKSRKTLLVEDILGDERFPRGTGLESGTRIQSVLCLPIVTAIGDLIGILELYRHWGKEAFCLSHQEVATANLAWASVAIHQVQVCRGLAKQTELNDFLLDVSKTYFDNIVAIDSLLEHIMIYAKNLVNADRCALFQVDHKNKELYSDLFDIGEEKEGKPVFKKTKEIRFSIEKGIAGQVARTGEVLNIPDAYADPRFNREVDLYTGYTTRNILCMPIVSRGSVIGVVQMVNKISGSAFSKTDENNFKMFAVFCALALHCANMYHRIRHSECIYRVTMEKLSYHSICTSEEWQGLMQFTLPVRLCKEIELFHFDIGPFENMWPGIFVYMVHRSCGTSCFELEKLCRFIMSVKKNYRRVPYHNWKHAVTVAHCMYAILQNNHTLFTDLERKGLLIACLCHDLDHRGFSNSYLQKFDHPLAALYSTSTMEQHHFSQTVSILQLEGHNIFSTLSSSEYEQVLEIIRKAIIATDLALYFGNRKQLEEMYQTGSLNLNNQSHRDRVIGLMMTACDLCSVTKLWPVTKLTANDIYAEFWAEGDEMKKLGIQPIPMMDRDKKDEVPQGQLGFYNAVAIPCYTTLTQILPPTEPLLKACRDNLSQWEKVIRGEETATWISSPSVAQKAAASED
Sequence of CYP2C9 (P11712 whole entry): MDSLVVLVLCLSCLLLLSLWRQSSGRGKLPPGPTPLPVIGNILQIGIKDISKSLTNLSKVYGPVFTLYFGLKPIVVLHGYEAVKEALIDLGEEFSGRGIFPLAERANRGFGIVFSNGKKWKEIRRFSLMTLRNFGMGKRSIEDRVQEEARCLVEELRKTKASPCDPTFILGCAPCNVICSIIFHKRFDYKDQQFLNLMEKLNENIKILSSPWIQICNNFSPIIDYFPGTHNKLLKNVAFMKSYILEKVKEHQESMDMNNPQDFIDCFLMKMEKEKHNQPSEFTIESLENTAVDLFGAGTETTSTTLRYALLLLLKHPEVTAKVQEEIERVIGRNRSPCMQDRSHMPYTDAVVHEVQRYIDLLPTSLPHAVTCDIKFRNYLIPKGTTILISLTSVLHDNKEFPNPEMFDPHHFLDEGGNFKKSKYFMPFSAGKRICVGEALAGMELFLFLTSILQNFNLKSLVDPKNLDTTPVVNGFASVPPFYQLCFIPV

Structure (SMILES): Cc1nc(N2CC(c3nc4ccccc4n3C)C2)cc(-n2nc(C)nc2C(O)C(F)(F)F)n1 (single isomer, unassigned) [Example 3b, 2,2,2-trifluoro-1-(3-methyl-1-(2-methyl-6-(3-(1-methyl-1H-benzo[d]imidazol-2-yl)azetidin-1-yl)pyrimidin-4-yl)-1H-1,2,4-triazol-5-yl)ethanol]
- Ki (human PDE10A2; [1]): 0.06 nM
- Ki (human PDE10A2; read-out: PDE10a Ki): 0.06 nM
- TDI CYP3A4 shift ratio (CYP3A4): 1
- time-dependent inhibition (TDI) of the CYP3A4 enzyme (CYP3A4): do not exhibit TDI of CYP3A4
- IC50 (CYP2C9): > 50000 nM

Structure (SMILES): CCC(O)c1nc(C)nn1-c1cc(N2CC(c3nc4ccccc4n3C)C2)nc(C)n1 (single isomer, unassigned) [Example 4b, 1-(3-methyl-1-(2-methyl-6-(3-(1-methyl-1H-benzo[d]imidazol-2-yl)azetidin-1-yl)pyrimidin-4-yl)-1H-1,2,4-triazol-5-yl)propan-1-ol]
- Ki (human PDE10A2; [1]): 0.51 nM
- Ki (human PDE10A2; read-out: PDE10a Ki): 0.41 nM
- TDI CYP3A4 shift ratio (CYP3A4): 1
- time-dependent inhibition (TDI) of the CYP3A4 enzyme (CYP3A4): do not exhibit TDI of CYP3A4
- IC50 (CYP2C9): > 50000 nM

Structure (SMILES): Cc1nc(N2CC(c3nc4ccccc4n3C)C2)cc(-n2nc(C)nc2C(O)C2CC2)n1 (single isomer, unassigned) [Example 6a, cyclopropyl(3-methyl-1-(2-methyl-6-(3-(1-methyl-1H-benzo[d]imidazol-2-yl)azetidin-1-yl)pyrimidin-4-yl)-1H-1,2,4-triazol-5-yl)methanol]
- Ki (human PDE10A2; [1]): 0.17 nM
- Ki (human PDE10A2; read-out: PDE10a Ki): 0.17 nM
- TDI CYP3A4 shift ratio (CYP3A4): 1
- time-dependent inhibition (TDI) of the CYP3A4 enzyme (CYP3A4): do not exhibit TDI of CYP3A4
- IC50 (CYP2C9): > 50000 nM

Structure (SMILES): CCC(O)c1nc(C)nn1-c1cc([C@@H]2C[C@H]2c2nc3ccccc3n2C)nc(C)n1 (single isomer, unassigned) [Example 19a]
- time-dependent inhibition (TDI) of the CYP3A4 enzyme (CYP3A4): do not exhibit TDI of CYP3A4
- IC50 (CYP2C9): > 50000 nM

Structure (SMILES): Cc1nc([C@@H]2C[C@H]2c2nc3ccccc3n2C)cc(-n2nc(C)nc2C(C)(C)O)n1 [Compound A, 2-(3-methyl-1-(2-methyl-6-((1R,2R)-2-(1-methyl-1H-benzo[d]imidazol-2-yl)cyclopropyl)pyrimidin-4-yl)-1H-1,2,4-triazol-5-yl)propan-2-ol, reference compound]
- Ki (human PDE10A2; [1]): 4.2 nM
- TDI CYP3A4 shift ratio (CYP3A4): 1
- IC50 (CYP2C9): > 50000 nM

Structure (SMILES): CO[C@@H](C)c1nc(C)nn1-c1cc([C@@H]2C[C@H]2c2nc3ccccc3n2C)nc(C)n1 [Compound B, 2-((1R,2R)-2-(6-(5-((S)-1-methoxyethyl)-3-methyl-1H-1,2,4-triazol-1-yl)-2-methylpyrimidin-4-yl)cyclopropyl)-1-methyl-1H-benzo[d]imidazole, reference compound]
- Ki (human PDE10A2; [1]): 2.1 nM
- TDI CYP3A4 shift ratio (CYP3A4): 1
- IC50 (CYP2C9): 10500 nM

Structure (SMILES): COCc1nc(C)nn1-c1cc([C@@H]2C[C@H]2c2nc3ccccc3n2C)nc(C)n1 [Compound C, 2-((1R,2R)-2-(6-(5-(methoxymethyl)-3-methyl-1H-1,2,4-triazol-1-yl)-2-methylpyrimidin-4-yl)cyclopropyl)-1-methyl-1H-benzo[d]imidazole, reference compound]
- Ki (human PDE10A2; [1]): 0.49 nM
- TDI CYP3A4 shift ratio (CYP3A4): >1.98
- time-dependent inhibition (TDI) of the CYP3A4 enzyme (CYP3A4): exhibited time-dependent inhibition (TDI) of the CYP3A4 enzyme
- IC50 (CYP2C9): 46000 nM

Structure (SMILES): Cc1nc(N2CC(c3nc4ccccc4n3C)C2)cc(-n2nc(C)nc2[C@H](C)O)n1 [Example 1, (S)-1-(3-methyl-1-(2-methyl-6-(3-(1-methyl-1H-benzo[d]imidazol-2-yl)azetidin-1-yl)pyrimidin-4-yl)-1H-1,2,4-triazol-5-yl)ethanol]
- Ki (human PDE10A2; read-out: PDE10a Ki): 0.23 nM
- TDI CYP3A4 shift ratio (CYP3A4): 1
- time-dependent inhibition (TDI) of the CYP3A4 enzyme (CYP3A4): do not exhibit TDI of CYP3A4
- IC50 (CYP2C9): > 50000 nM

Structure (SMILES): Cc1nc(N2CC(c3nc4ccccc4n3C)C2)cc(-n2nc(C)nc2[C@@H](C)O)n1 [Example 2, (R)-1-(3-methyl-1-(2-methyl-6-(3-(1-methyl-1H-benzo[d]imidazol-2-yl)azetidin-1-yl)pyrimidin-4-yl)-1H-1,2,4-triazol-5-yl)ethanol]
- Ki (human PDE10A2; [1]): 1.2 nM
- Ki (human PDE10A2; read-out: PDE10a Ki): 1.2 nM
- TDI CYP3A4 shift ratio (CYP3A4): 1
- time-dependent inhibition (TDI) of the CYP3A4 enzyme (CYP3A4): do not exhibit TDI of CYP3A4
- IC50 (CYP2C9): > 50000 nM

Structure (SMILES): Cc1nc(C(C)O)n(-c2cc(N3CC(c4nc5ccccc5n4C)C3)nc(C3CC3)n2)n1 (stereo not shown) [Example 10, 1-(1-(2-cyclopropyl-6-(3-(1-methyl-1H-benzo[d]imidazol-2-yl)azetidin-1-yl)pyrimidin-4-yl)-3-methyl-1H-1,2,4-triazol-5-yl)ethanol]
- Ki (human PDE10A2; read-out: PDE10a Ki): 0.21 nM

Structure (SMILES): Cc1nc(N2CC(c3nc4ccccc4n3C)C2)cc(-n2nc(C)nc2C(O)CF)n1 (stereo not shown) [Example 12, 2-fluoro-1-(3-methyl-1-(2-methyl-6-(3-(1-methyl-1H-benzo[d]imidazol-2-yl)azetidin-1-yl)pyrimidin-4-yl)-1H-1,2,4-triazol-5-yl)ethanol]
- Ki (human PDE10A2; read-out: PDE10a Ki): 0.34 nM

Structure (SMILES): Cc1nc([C@@H]2C[C@H]2c2nc3ccccc3n2C)cc(-n2nc(C)nc2[C@H](C)O)n1 [Example 13, (S)-1-(3-methyl-1-(2-methyl-6-((1R,2R)-2-(1-methyl-1H-benzo[d]imidazol-2-yl)cyclopropyl)pyrimidin-4-yl)-1H-1,2,4-triazol-5-yl)ethanol]
- Ki (human PDE10A2; [1]): 0.74 nM
- Ki (human PDE10A2; read-out: PDE10a Ki): 0.74 nM
- TDI CYP3A4 shift ratio (CYP3A4): 1
- time-dependent inhibition (TDI) of the CYP3A4 enzyme (CYP3A4): do not exhibit TDI of CYP3A4
- IC50 (CYP2C9): > 50000 nM

Structure (SMILES): Cc1nc([C@@H]2C[C@H]2c2nc3ccccc3n2C)cc(-n2nc(C)nc2[C@H](O)c2ccccc2)n1 [Example 15, (R)-(3-methyl-1-(2-methyl-6-((1R,2R)-2-(1-methyl-1H-benzo[d]imidazol-2-yl)cyclopropyl)pyrimidin-4-yl)-1H-1,2,4-triazol-5-yl)(phenyl)methanol]
- Ki (human PDE10A2; read-out: PDE10a Ki): 0.09 nM

Structure (SMILES): Cc1nc([C@@H]2C[C@H]2c2nc3ccccc3n2C)cc(-n2nc(C)nc2[C@@H](O)c2ccccc2)n1 [Example 16, (S)-(3-methyl-1-(2-methyl-6-((1R,2R)-2-(1-methyl-1H-benzo[d]imidazol-2-yl)cyclopropyl)pyrimidin-4-yl)-1H-1,2,4-triazol-5-yl)(phenyl)methanol]
- Ki (human PDE10A2; read-out: PDE10a Ki): 0.62 nM

Structure (SMILES): Cc1nc([C@H](C)O)n(-c2cc([C@@H]3C[C@H]3c3nc4ccccc4n3C)nc(C(F)(F)F)n2)n1 [Example 17, (S)-1-(3-methyl-1-(6-((1R,2R)-2-(1-methyl-1H-benzo[d]imidazol-2-yl)cyclopropyl)-2-(trifluoromethyl)pyrimidin-4-yl)-1H-1,2,4-triazol-5-yl)ethanol]
- Ki (human PDE10A2; read-out: PDE10a Ki): 2.8 nM

Structure (SMILES): Cc1nc([C@H](C)O)n(-c2cc([C@@H]3C[C@H]3c3nc4ccccc4n3C)nc(C3CC3)n2)n1 [Example 18, (S)-1-(1-(2-cyclopropyl-6-((1R,2R)-2-(1-methyl-1H-benzo[d]imidazol-2-yl)cyclopropyl)pyrimidin-4-yl)-3-methyl-1H-1,2,4-triazol-5-yl)ethanol]
- Ki (human PDE10A2; read-out: PDE10a Ki): 0.36 nM

Structure (SMILES): Cc1nc(C2C[C@H]2c2nc3ccccc3n2C)cc(-n2nc(C)nc2C(O)C(F)(F)F)n1 (stereo partly drawn) [Example 20, 2,2,2-trifluoro-1-(3-methyl-1-(2-methyl-6-((1R,2R)-2-(1-methyl-1H-benzo[d]imidazol-2-yl)cyclopropyl)pyrimidin-4-yl)-1H-1,2,4-triazol-5-yl)ethanol]
- Ki (human PDE10A2; read-out: PDE10a Ki): 0.55 nM

Structure (SMILES): Cc1nc([C@@H]2C[C@H]2c2nc3ccccc3n2C)cc(-n2nc(C)nc2C(O)C(C)C)n1 (stereo partly drawn) [Example 21, 2-methyl-1-(3-methyl-1-(2-methyl-6-((1R,2R)-2-(1-methyl-1H-benzo[d]imidazol-2-yl)cyclopropyl)pyrimidin-4-yl)-1H-1,2,4-triazol-5-yl)propan-1-ol]
- Ki (human PDE10A2; read-out: PDE10a Ki): 0.47 nM
